Measured values taken from article PMC6084503, “Pyrrolo[3,2-c]pyridine derivatives with potential inhibitory effect against FMS kinase: in vitro biological studies” (Journal of Enzyme Inhibition and Medicinal Chemistry, 2018).
Like-named read-outs stand apart in the source and are kept apart here. One block for each compound: values may come before it.

How the values were obtained:
[1] = molecular target: T1, CDK2/cyclinE (Homo sapiens, UniProt P24941); test: Kinase HotSpot 40-kinase panel; type: biochemical; conditions: single-dose concentration of 1 μM
T1 construct: purchased Reaction Biology Corp. (Kinase HotSpot)
Description: (§1) Reaction Biology Corp. Kinase HotSpot^SM service [http://www.reactionbiology.com] was utilised for screening of the target compounds as per the protocol reported in the literature.
(§2) Compound 1r was tested against a panel of 40 kinases including FMS. […] Its inhibition percentages against FLT3 (D835Y) and c-MET kinases were 42% and 40%, respectively. So its IC50 values against both of them will be in micromolar scale. […] The inhibition percentages exerted by compound 1r against the other 37 tested kinases were less than 28%.

[2] = molecular target: T2, CHK1 (Homo sapiens, UniProt O14757); test: Kinase HotSpot 40-kinase panel; type: biochemical; conditions: single-dose concentration of 1 μM
T2 construct: purchased Reaction Biology Corp. (Kinase HotSpot)
Description: as §1, §2

[3] = molecular target: T3, EGFR (T790M) (Homo sapiens, UniProt P00533, T790M); test: Kinase HotSpot 40-kinase panel; type: biochemical; conditions: single-dose concentration of 1 μM
T3 construct: purchased Reaction Biology Corp. (Kinase HotSpot)
Description: as §1, §2

[4] = molecular target: T4, FYN (Homo sapiens, UniProt P06241); test: Kinase HotSpot 40-kinase panel; type: biochemical; conditions: single-dose concentration of 1 μM
T4 construct: purchased Reaction Biology Corp. (Kinase HotSpot)
Description: as §1, §2

[5] = molecular target: T5, HIPK2 (Homo sapiens, UniProt Q9H2X6); test: Kinase HotSpot 40-kinase panel; type: biochemical; conditions: single-dose concentration of 1 μM
T5 construct: purchased Reaction Biology Corp. (Kinase HotSpot)
Description: as §1, §2

[6] = molecular target: T6, IGF-1R (Homo sapiens, UniProt P08069); test: Kinase HotSpot 40-kinase panel; type: biochemical; conditions: single-dose concentration of 1 μM
T6 construct: purchased Reaction Biology Corp. (Kinase HotSpot)
Description: as §1, §2

[7] = molecular target: T7, IKKβ (Homo sapiens, UniProt O14920); test: Kinase HotSpot 40-kinase panel; type: biochemical; conditions: single-dose concentration of 1 μM
T7 construct: purchased Reaction Biology Corp. (Kinase HotSpot)
Description: as §1, §2

[8] = molecular target: T8, KDR (Homo sapiens, UniProt P35968); test: Kinase HotSpot 40-kinase panel; type: biochemical; conditions: single-dose concentration of 1 μM
T8 construct: purchased Reaction Biology Corp. (Kinase HotSpot)
Description: as §1, §2

[9] = molecular target: T9, MEK1 (Homo sapiens, UniProt Q02750); test: Kinase HotSpot 40-kinase panel; type: biochemical; conditions: single-dose concentration of 1 μM
T9 construct: purchased Reaction Biology Corp. (Kinase HotSpot)
Description: as §1, §2

[10] = molecular target: T10, P70S6K (Homo sapiens, UniProt P23443); test: Kinase HotSpot 40-kinase panel; type: biochemical; conditions: single-dose concentration of 1 μM
T10 construct: purchased Reaction Biology Corp. (Kinase HotSpot)
Description: as §1, §2

[11] = molecular target: T11, RET (Homo sapiens, UniProt P07949); test: Kinase HotSpot 40-kinase panel; type: biochemical; conditions: single-dose concentration of 1 μM
T11 construct: purchased Reaction Biology Corp. (Kinase HotSpot)
Description: as §1, §2

[12] = molecular target: T12, ROCK1 (Homo sapiens, UniProt Q13464); test: Kinase HotSpot 40-kinase panel; type: biochemical; conditions: single-dose concentration of 1 μM
T12 construct: purchased Reaction Biology Corp. (Kinase HotSpot)
Description: as §1, §2

[13] = molecular target: T13, SAPK2a (Homo sapiens, UniProt Q16539); test: Kinase HotSpot 40-kinase panel; type: biochemical; conditions: single-dose concentration of 1 μM
T13 construct: purchased Reaction Biology Corp. (Kinase HotSpot)
Description: as §1, §2

[14] = molecular target: T14, c-MET (Homo sapiens, UniProt P08581); test: Kinase HotSpot 40-kinase panel; type: biochemical; conditions: single-dose concentration of 1 μM
T14 construct: purchased Reaction Biology Corp. (Kinase HotSpot)
Description: as §1, §2

[15] = molecular target: T15, mTOR (Homo sapiens, UniProt P42345); test: Kinase HotSpot 40-kinase panel; type: biochemical; conditions: single-dose concentration of 1 μM
T15 construct: purchased Reaction Biology Corp. (Kinase HotSpot)
Description: as §1, §2

[16] = test system: DU-145 prostate cancer cell line; test: NCI antiproliferative screening, 5-dose; type: cell-based; conditions: for IC50: concentration producing 50% inhibition, mean of duplicate experiments; for TGI: concentration producing 100% inhibition
Description: (§3) Compounds 1r and KIST101029 were tested at the National Cancer Institute (NCI, Bethesda, MD) following their standard protocol [https://dtp.cancer.gov/discovery_development/nci-60/methodology.htm].
(§4) Due to over-expression of FMS kinase in certain types of tumours such as ovarian, prostate, and breast[5–7] cancers, we decided to test the antiproliferative activity of compound 1r against a panel of six ovarian, two prostate, and five breast cancer cell lines. It was also tested against HS 27 fibroblasts in order to investigate the selectivity indexes. The results were compared with those of KIST101029 as a reference standard.

[17] = test system: HS 578T breast cancer cell line; test: NCI antiproliferative screening, 5-dose; type: cell-based; conditions: for IC50: concentration producing 50% inhibition, mean of duplicate experiments; for TGI: concentration producing 100% inhibition
Description: as §3, §4

[18] = test system: IGROV1 ovarian cancer cell line; test: NCI antiproliferative screening, 5-dose; type: cell-based; conditions: for IC50: mean of duplicate experiments; for TGI: concentration producing 100% inhibition
Description: as §3, §4

[19] = test system: MCF7 breast cancer cell line; test: NCI antiproliferative screening, 5-dose; type: cell-based; conditions: for IC50: concentration producing 50% inhibition, mean of duplicate experiments; for TGI: concentration producing 100% inhibition
Description: as §3, §4

[20] = test system: MDA-MB-231/ATCC breast cancer cell line; test: NCI antiproliferative screening, 5-dose; type: cell-based; conditions: for IC50: concentration producing 50% inhibition, mean of duplicate experiments; for TGI: concentration producing 100% inhibition
Description: as §3, §4

[21] = test system: MDA-MB-468 breast cancer cell line; test: NCI antiproliferative screening, 5-dose; type: cell-based; conditions: for IC50: concentration producing 50% inhibition, mean of duplicate experiments; for TGI: concentration producing 100% inhibition
Description: as §3, §4

[22] = test system: NCI/ADR-RES ovarian cancer cell line; test: NCI antiproliferative screening, 5-dose; type: cell-based; conditions: for IC50: concentration producing 50% inhibition, mean of duplicate experiments; for TGI: concentration producing 100% inhibition
Description: as §3, §4

[23] = test system: OVCAR-3 ovarian cancer cell line; test: NCI antiproliferative screening, 5-dose; type: cell-based; conditions: for IC50: concentration producing 50% inhibition, mean of duplicate experiments; for TGI: concentration producing 100% inhibition
Description: as §3, §4

[24] = test system: OVCAR-4 ovarian cancer cell line; test: NCI antiproliferative screening, 5-dose; type: cell-based; conditions: for IC50: concentration producing 50% inhibition, mean of duplicate experiments; for TGI: concentration producing 100% inhibition
Description: as §3, §4

[25] = test system: OVCAR-5 ovarian cancer cell line; test: NCI antiproliferative screening, 5-dose; type: cell-based; conditions: for IC50: concentration producing 50% inhibition, mean of duplicate experiments; for TGI: concentration producing 100% inhibition
Description: as §3, §4

[26] = test system: OVCAR-8 ovarian cancer cell line; test: NCI antiproliferative screening, 5-dose; type: cell-based; conditions: for IC50: concentration producing 50% inhibition, mean of duplicate experiments; for TGI: concentration producing 100% inhibition
Description: as §3, §4

[27] = test system: PC-3 prostate cancer cell line; test: NCI antiproliferative screening, 5-dose; type: cell-based; conditions: for IC50: concentration producing 50% inhibition, mean of duplicate experiments; for TGI: concentration producing 100% inhibition
Description: as §3, §4

[28] = test system: T-47D breast cancer cell line; test: NCI antiproliferative screening, 5-dose; type: cell-based; conditions: for IC50: concentration producing 50% inhibition, mean of duplicate experiments; for TGI: concentration producing 100% inhibition
Description: as §3, §4

[29] = test system: HS 27 fibroblasts; test: Antiproliferative screening against HS 27 fibroblasts; type: cell-based; conditions: HS-27 Fibroblasts (normal cells), concentration producing 50% inhibition
Description: It was conducted following the previously reported protocol.
as §4

[30] = test system: bone marrow-derived macrophages (BMDM); test: BMDM assay, CSF-1-induced BMDM growth (Alamar Blue); type: cell-based, C57BL6 murine; conditions: 5 days, triplicate assay, mean ± SEM, 10-dose from 1 µM, read-out: IC50 against bone marrow-derived macrophages (BMDM)
Description: The macrophages were isolated from C57BL6 murine bone marrow using Miltenyi Biotec MACS beads (CD11b). The macrophages (30,000 cells/well) were cultured in RPMI 1640 medium containing 10% foetal bovine serum, 2-mercaptoethanol ([…]), and the test compound for 1 h at 37 °C in the presence of 5% CO2. CSF-1 (20 ng/mL) was then added and the system was incubated for 5 days. Each compound was tested in a 10-dose testing mode, threefold serial dilution starting with 1 µM concentration. The inhibitory effects of the tested compounds against CSF-1-induced BMDM growth were determined using Alamar Blue^TM (Serotec).
FMS over-expression contributes to inflammatory disorders as explained in the Introduction section. So compounds 1r and KIST101029 were tested for their ability to inhibit CSF-1-induced BMDM growth. […] So, the compound 1r can be a promising candidate for future development of anti-arthritic drugs.
Each compound was tested in a 10-dose testing mode, threefold serial dilution starting with 1 µM concentration.

T11 sequence (P07949 29-1114): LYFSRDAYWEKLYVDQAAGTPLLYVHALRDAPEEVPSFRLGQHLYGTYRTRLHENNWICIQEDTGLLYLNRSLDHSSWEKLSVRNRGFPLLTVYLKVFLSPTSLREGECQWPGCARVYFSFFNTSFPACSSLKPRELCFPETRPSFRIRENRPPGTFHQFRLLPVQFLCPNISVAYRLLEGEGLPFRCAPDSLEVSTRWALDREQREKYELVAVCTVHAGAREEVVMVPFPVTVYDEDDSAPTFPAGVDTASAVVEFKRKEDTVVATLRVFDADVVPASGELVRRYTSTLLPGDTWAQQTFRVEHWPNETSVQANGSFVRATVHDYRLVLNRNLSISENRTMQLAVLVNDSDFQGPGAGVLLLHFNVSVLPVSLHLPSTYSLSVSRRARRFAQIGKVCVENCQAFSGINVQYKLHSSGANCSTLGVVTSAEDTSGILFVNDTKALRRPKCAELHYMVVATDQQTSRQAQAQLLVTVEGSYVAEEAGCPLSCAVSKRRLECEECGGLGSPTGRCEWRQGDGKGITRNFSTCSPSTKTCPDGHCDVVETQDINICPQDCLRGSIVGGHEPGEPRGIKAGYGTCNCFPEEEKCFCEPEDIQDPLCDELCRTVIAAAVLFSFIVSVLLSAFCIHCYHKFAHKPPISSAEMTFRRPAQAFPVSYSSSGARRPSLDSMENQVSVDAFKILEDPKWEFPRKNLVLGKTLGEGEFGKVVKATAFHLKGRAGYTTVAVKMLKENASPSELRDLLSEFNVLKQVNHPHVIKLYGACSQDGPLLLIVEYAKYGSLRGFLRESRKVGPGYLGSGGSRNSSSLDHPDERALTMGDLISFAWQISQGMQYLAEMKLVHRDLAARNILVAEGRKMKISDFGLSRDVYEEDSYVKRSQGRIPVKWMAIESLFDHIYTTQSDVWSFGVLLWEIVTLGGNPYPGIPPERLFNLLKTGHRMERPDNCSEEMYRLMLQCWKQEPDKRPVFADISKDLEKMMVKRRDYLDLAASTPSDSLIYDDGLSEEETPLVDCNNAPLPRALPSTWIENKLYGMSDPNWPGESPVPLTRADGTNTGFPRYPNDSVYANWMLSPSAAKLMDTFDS
T9 sequence (Q02750 whole entry): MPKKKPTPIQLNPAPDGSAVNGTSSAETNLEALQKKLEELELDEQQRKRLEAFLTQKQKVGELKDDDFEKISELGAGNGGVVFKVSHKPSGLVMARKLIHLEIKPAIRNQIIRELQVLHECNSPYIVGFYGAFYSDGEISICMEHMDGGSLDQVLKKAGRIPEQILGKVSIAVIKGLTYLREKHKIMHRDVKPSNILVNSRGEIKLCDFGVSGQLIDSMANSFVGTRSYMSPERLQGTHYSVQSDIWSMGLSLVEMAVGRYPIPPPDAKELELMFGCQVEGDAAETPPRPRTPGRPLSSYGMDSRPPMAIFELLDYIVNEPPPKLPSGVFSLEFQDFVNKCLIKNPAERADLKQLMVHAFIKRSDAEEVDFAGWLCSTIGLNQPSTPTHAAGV
T14 sequence (P08581 25-1390): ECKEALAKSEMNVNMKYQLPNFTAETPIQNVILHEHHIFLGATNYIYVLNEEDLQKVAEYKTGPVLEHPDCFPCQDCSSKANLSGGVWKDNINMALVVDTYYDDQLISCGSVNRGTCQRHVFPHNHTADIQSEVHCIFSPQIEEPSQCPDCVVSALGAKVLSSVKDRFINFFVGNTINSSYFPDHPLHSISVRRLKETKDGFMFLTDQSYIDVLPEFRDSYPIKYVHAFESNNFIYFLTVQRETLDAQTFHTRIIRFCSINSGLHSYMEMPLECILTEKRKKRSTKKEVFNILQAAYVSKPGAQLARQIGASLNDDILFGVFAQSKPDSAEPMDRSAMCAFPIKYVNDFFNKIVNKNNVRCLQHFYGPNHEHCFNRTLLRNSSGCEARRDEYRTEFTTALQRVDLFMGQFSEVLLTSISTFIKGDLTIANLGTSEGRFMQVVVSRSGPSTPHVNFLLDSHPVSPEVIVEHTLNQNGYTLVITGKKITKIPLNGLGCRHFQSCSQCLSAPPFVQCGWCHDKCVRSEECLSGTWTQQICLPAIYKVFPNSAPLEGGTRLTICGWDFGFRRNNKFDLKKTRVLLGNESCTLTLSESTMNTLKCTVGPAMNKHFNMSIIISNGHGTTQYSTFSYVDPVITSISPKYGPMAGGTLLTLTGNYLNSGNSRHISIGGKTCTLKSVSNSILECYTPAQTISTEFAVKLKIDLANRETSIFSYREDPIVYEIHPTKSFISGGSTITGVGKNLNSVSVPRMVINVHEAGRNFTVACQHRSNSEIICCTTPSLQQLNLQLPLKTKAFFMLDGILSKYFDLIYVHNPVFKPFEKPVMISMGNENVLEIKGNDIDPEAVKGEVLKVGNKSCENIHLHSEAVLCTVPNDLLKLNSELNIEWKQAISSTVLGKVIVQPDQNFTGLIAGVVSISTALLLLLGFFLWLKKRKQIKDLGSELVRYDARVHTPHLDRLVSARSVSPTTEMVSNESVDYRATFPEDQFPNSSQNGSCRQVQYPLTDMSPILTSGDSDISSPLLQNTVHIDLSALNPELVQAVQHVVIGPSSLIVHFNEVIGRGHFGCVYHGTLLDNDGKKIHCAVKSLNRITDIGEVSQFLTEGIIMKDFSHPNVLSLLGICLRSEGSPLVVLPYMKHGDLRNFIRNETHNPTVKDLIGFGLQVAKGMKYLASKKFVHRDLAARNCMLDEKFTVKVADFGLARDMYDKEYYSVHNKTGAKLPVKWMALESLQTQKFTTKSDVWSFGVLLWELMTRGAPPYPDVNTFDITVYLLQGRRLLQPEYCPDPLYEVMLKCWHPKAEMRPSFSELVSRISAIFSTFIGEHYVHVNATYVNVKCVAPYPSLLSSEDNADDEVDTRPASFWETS
T7 sequence (O14920 whole entry): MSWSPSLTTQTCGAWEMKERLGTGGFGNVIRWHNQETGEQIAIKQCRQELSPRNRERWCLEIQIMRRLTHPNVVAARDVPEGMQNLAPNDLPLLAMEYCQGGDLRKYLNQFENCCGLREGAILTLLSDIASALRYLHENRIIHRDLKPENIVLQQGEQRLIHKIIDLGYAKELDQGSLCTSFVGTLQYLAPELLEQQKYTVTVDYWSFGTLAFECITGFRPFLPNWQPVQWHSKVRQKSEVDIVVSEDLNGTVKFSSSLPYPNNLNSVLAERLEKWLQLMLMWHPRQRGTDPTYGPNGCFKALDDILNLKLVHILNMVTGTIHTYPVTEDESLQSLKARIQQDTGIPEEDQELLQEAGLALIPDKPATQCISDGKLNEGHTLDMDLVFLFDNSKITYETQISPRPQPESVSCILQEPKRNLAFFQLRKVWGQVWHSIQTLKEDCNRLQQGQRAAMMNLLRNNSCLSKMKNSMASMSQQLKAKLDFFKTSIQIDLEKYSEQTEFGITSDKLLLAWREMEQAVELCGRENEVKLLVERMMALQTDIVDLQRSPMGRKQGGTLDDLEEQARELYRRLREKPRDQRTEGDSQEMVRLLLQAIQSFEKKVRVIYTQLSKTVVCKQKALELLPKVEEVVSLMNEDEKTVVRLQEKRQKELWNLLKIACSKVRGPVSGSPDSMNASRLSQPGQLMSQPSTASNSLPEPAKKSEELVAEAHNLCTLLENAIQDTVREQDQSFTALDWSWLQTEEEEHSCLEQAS
T13 sequence (Q16539 whole entry): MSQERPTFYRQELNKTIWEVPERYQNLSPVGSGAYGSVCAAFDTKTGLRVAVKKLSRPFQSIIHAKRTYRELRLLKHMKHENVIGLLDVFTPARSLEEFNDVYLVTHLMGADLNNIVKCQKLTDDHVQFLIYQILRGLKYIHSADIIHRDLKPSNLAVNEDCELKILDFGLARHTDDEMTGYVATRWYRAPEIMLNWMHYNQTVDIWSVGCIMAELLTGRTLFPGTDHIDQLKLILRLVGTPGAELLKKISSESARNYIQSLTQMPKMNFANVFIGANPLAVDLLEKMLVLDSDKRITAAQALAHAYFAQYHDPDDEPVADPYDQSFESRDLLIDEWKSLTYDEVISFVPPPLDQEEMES
T2 sequence (O14757 whole entry): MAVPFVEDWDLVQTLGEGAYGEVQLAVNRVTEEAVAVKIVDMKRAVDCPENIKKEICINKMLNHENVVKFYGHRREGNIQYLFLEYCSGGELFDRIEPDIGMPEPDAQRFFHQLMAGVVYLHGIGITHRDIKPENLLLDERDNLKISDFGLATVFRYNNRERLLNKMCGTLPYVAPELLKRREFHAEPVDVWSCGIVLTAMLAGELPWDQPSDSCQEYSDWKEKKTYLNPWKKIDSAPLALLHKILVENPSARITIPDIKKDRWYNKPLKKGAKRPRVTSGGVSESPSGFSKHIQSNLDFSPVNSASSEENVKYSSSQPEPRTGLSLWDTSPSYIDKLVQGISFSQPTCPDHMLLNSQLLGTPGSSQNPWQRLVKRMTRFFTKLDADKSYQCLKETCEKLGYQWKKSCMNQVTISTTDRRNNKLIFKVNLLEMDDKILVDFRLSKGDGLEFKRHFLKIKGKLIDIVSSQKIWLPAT
T10 sequence (P23443 whole entry): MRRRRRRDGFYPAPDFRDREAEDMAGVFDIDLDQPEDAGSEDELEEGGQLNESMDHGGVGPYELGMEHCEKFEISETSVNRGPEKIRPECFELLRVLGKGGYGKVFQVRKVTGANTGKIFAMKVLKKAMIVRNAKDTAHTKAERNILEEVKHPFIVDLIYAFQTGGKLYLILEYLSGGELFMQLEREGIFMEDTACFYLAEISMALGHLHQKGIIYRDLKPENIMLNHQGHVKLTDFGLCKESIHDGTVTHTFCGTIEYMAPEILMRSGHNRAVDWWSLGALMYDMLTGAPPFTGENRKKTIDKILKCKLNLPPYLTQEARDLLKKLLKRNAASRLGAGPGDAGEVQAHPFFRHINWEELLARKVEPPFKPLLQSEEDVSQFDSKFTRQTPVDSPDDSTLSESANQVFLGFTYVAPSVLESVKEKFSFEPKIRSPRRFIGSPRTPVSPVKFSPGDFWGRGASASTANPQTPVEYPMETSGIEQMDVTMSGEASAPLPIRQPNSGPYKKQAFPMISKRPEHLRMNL

% Inhibition [1]: −1% | % Inhibition [2]: −6% | % Inhibition [3]: 4% | % Inhibition [4]: 14% | % Inhibition [5]: 6% | % Inhibition [6]: 4% | % Inhibition [7]: 1% | % Inhibition [8]: 1% | % Inhibition [9]: −7% | % Inhibition [10]: −8% | % Inhibition [11]: 27% | % Inhibition [12]: 2% | % Inhibition [13]: −1% | % Inhibition [14]: 40% | % Inhibition [15]: −2%
SMILES: Nc1nccc2c1ccn2-c1cccc(NC(=O)c2ccc(N3CCOCC3)c(C(F)(F)F)c2)c1 [Compound 1r]
IC50 [16]: 1300 nM | TGI [16]: 4670 nM | IC50 [17]: 340 nM | TGI [17]: 2430 nM | IC50 ([18]; concentration producing 50% inhibition): 700 nM | TGI [18]: 43300 nM | IC50 [19]: 150 nM | TGI [19]: 6860 nM | IC50 [20]: 840 nM | TGI [20]: 2320 nM | IC50 [21]: 300 nM | TGI [21]: 3140 nM | IC50 [22]: 340 nM | TGI [22]: >50000 nM | IC50 [23]: 240 nM | TGI [23]: 1470 nM | IC50 [24]: 1080 nM | TGI [24]: 26000 nM | IC50 [25]: 1380 nM | TGI [25]: >50000 nM | IC50 [26]: 1260 nM | TGI [26]: 9960 nM | IC50 [27]: 380 nM | TGI [27]: 10400 nM | IC50 [28]: 1780 nM | TGI [28]: 27500 nM | IC50 [29]: 5720 nM | IC50 [30]: 84 ± 3 nM

inhibition at 1 µM [1]: -12% | inhibition at 1 µM [2]: -8% | inhibition at 1 µM [3]: 1% | inhibition at 1 µM [4]: 44% | inhibition at 1 µM [5]: 9% | inhibition at 1 µM [6]: 10% | inhibition at 1 µM [7]: 23% | inhibition at 1 µM [8]: 71% | inhibition at 1 µM [9]: 12% | inhibition at 1 µM [10]: 7% | inhibition at 1 µM [11]: 57% | inhibition at 1 µM [12]: 3% | inhibition at 1 µM [13]: 25% | inhibition at 1 µM [14]: -16% | inhibition at 1 µM [15]: -10%
SMILES: O=C(Nc1cccc(-n2ccc3c(NC(=O)c4ccccc4)nccc32)c1)c1ccc(N2CCOCC2)c(C(F)(F)F)c1 [KIST101029, reference compound]
IC50 ([16]; Homo sapiens): 40 nM | TGI [16]: 100 nM | IC50 ([17]; Homo sapiens): 990 nM | TGI [17]: 97200 nM | IC50 ([18]; Homo sapiens, IGROV-1, concentration producing 50% inhibition): 60 nM | TGI [18]: 56900 nM | IC50 ([19]; Homo sapiens): 40 nM | TGI [19]: 54000 nM | IC50 ([20]; Homo sapiens): 160 nM | TGI [20]: 3420 nM | IC50 ([21]; Homo sapiens): 30 nM | TGI [21]: 100 nM | IC50 ([22]; Homo sapiens): 40 nM | TGI [22]: 26400 nM | IC50 ([23]; Homo sapiens): 20 nM | TGI [23]: 50 nM | IC50 ([24]; Homo sapiens): 240 nM | TGI [24]: 50000 nM | IC50 ([25]; Homo sapiens): 200 nM | TGI [25]: >100000 nM | IC50 ([26]; Homo sapiens): 60 nM | TGI [26]: >100000 nM | IC50 [27]: 60 nM | TGI [27]: >100000 nM | IC50 ([28]; Homo sapiens, T47D): 80 nM | TGI [28]: 7460 nM | IC50 ([29]; Homo sapiens, HS27): 300 nM | IC50 ([30]; Mus musculus, 120 h): 195 ± 6 nM
